# Results from US10138466B2, “Compositions and methods for differentiating stem cells into cell populations comprising beta-like cells” (REGENERATIVE MEDICAL SOLUTIONS, INC., priority 2014, dated 2018).
# Tests used:
# differentiated cells = test: GSIS test of differentiated cells with Warfarin in stage 6 medium; format: cell-based, human
# Description: 300 ng/ml Noggin was added in step 4 and 10 uM ALK5i was added in step 5. In the final step, cells were transferred from transwell to suspension culture (in low attachment wells or flasks). […]
# Warfarin was added at stage 6.
# [1] = system: iPS derived beta-cell clusters; test: Response of iPS derived beta-cell clusters to tolbutamide; format: cell-based, human
# Description: Experiments were conducted to determine the effect of shipping induced islet cells on Transwells. Cells were differentiated according to the protocol described in Example 15. (ProgenMixIII). Total differentiation time was 27 days and the final product was islet-like-clusters (ILCs) in suspension. On the day of shipment, ILCs were counted and divided into individual mouse dosages: one mouse dosage per bottle. Cells were sent by FedEx overnight at 4° C. using cold packs. Leftover ILCs from shipment were used as controls.
# Results are shown in FIGS. 36-42. iPS derived beta-cell clusters responded to glucose challenge and tolbutamide, a KATP channel closer.
# T cell = details: high concentrations (1 μg/mL), murine models of T1D; cited from earlier work
# NKX6.1 expression = test: EGF at stage 5 of differentiation, NKX6.1 expression; format: cell-based, human; details: Ten to fifty ng/ml EGF at stage 5
# Description: EGF was added at stage 5.
molecule,measurement,setting,value
CC(=O)CC(c1ccccc1)c1c(O)c2ccccc2oc1=O (stereo not drawn) [Warfarin],SI (stimulation index) in GSIS test,differentiated cells; 2 uM Warfarin in stage 6,3.0
same,SI (stimulation index) in GSIS test,differentiated cells; 5 uM Warfarin in stage 6,3.8
same,stimulation index in GSIS test,differentiated cells; warfarin in the final media,significantly increased
CCCCNC(=O)NS(=O)(=O)c1ccc(C)cc1 [tolbutamide],"response to tolbutamide, a KATP channel closer",[1],responded
"CXCL12: immune modulating chemokine, T-cell chemorepellent",action on T cells,T cell,T cell chemorepellent
EGF: growth factor added at stage 5 of differentiation,NKX6.1 expression at end,NKX6.1 expression,enhance NKX6.1 expression
